The target in assay [1] is hTDO2 in human glioblastoma A172 cells (Homo sapiens (Human), UniProt P48775). Briefly: Cellular assay for TDO2 activity determination in A172 cells. In kind it is cell-based. The following applies: overnight incubation, kynurenine absorbance at 480 nm. The procedure, abridged: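 Glioblastoma A172 cells with endogenous hTDO2, 1.25×10^4 cells/well, incubated overnight at 37° C. with ten serial compound concentrations in IMDM with 2% FBS. Supernatant kynurenine, after TCA precipitation and 4-(dimethylamino)-benzaldehyde reaction, read at 480 nm against kynurenine standard curve; data curve-fitted.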

Another assay concerns the target TDO2 (Mus musculus (Mouse), UniProt P48776). Nature of the assay: Pharmacodynamic assay for TDO2 in vivo activity: increase of blood tryptophan levels in mice. The following applies: female BALB/c mice, plasma after two hours. The procedure:
The compounds of the present invention increase the amount of Tryptophan in mouse blood. Briefly, female BALB/c mice (7-8 weeks old) were treated with either a suspension of one of the compounds of the present invention in 0.5% hydroxypropyl methyl cellulose (HPMC) K4M (4000 mPa·s (cPs), Methocell™, Dow chemical)/0.25% Tween® 20 (Sigma Aldrich) at different doses (30, 60 and 100 mg/kg), or with a vehicle control (0.5% HPMC K4M/0.25% Tween 20), by the oral route by gavage (dosing volume 5 mL/kg, 10 mice per group). After two hours, blood was harvested, plasma was prepared and the amount of Tryptophan present was determined by LC-MS-MS (HPLC column Unison UK-Phenyl, 75×4.6, 3 μm, flow rate 0.8 mL/min, 8 minutes gradient from 95% water+0.1% formic acid/5% Acetonitrile+0.1% formic acid to 5% water+0.1% formic acid/95% Acetonitrile+0.1% formic acid, retention time 2.4 min; API4000 MS-MS system from AB Sciex, ESI+ mode, parent ion 205.1, daughter ion 146.1).

Assay [2] concerns the target human recombinant TDO2 enzyme (Homo sapiens (Human), UniProt P48775). Nature of the assay: Assay for TDO2 enzymatic activity determination. The following applies: human recombinant TDO2, L-Trp 1 mM, kynurenine absorbance at 480 nm. The class given is biochemical. The procedure: The compounds of formula I, its subformulae, and enantiomers, salts and solvates thereof, are useful to inhibit the enzymatic activity of human TDO2. To measure the TDO2 activity, the procedure described in Dolusic et al. J. Med. Chem.; 2011, 54, […] was adapted: the reaction mixture contained (final concentrations) potassium phosphate buffer (50 mM, pH 7.5), ascorbic acid ([…]), methylene blue (0.125 μM), catalase (40 units/mL, from bovine liver, Sigma), and human recombinant TDO2 enzyme (prepared as described in Dolusic et al. J. Med. Chem.; 2011, 54, 5320-5334; 0.9 μg) without or with the compounds of the present invention at the indicated concentrations (total volume 112.5 μL). The reaction was initiated by the addition of 37.5 μL of L-Trp (final concentration 1 mM) at room temperature. The reaction was conducted at room temperature during one hour and stopped by the addition of 30 μL of 30% (w/v) trichloroacetic acid. To convert N-formylkynurenine into kynurenine, the reaction mixture was incubated at 65° C. for 30 min. […] Kynurenine concentrations were determined by measuring the absorbance at 480 nm. A standard curve was made with pure kynurenine. The TDO activity was measured as described above using ten serial concentrations of the compounds of the present invention. Data were fitted using the Prism™ software (GraphPad Software, Inc.) using standard parameters.

Chain of TDO2 (P48776 whole entry): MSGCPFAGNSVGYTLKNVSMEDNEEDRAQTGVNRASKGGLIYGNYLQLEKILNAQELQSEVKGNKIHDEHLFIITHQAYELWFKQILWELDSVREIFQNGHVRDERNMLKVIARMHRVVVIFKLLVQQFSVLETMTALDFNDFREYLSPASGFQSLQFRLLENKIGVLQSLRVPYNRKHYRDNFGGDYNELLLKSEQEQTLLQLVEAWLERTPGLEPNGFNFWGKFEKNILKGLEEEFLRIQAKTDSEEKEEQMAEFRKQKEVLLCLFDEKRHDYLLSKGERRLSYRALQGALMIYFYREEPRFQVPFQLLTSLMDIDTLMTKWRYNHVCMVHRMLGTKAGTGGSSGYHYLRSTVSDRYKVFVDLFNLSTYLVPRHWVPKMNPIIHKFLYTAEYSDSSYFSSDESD
Chain of hTDO2 in human glioblastoma A172 cells (P48775 whole entry): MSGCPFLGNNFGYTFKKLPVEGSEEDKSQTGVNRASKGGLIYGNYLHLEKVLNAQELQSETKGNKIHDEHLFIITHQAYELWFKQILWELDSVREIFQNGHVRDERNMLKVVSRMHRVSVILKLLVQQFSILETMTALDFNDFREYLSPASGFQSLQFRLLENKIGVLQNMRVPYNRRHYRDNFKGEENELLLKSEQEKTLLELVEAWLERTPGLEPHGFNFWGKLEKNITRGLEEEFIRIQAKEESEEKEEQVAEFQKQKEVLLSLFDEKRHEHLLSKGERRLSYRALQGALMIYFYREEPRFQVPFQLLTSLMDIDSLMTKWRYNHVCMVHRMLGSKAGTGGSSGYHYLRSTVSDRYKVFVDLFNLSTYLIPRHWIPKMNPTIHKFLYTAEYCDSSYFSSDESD
Chain of human recombinant TDO2 enzyme (P48775 whole entry): as above

In general, IC50 refers to the concentration needed to halve the response being measured. Take `CC(=O)NCCNS(=O)(=O)c1ccc(-c2c[nH]c3cc(F)ccc23)cc1` [Example 16, N-(2-(4-(6-fluoro-1H-indol-3-yl)phenylsulfonamido)-ethyl)acetamide]: the IC50 in assay [1] worked out at 180 nM. Besides, the “Trp in plasma (average ± standard error of the mean)” value on TDO2 (30 mg/kg oral gavage) is on record as 32700 ng/mL; on TDO2 (60 mg/kg oral gavage), 35300 ng/mL; at TDO2 (100 mg/kg oral gavage), 34000 ng/mL.

Regarding `O=S(=O)(c1ccc(-c2c[nH]c3cc(F)ccc23)cc1)N1CCN[C@H](CO)C1` [Example 18, (S)-(4-((4-(6-fluoro-1H-indol-3-yl)phenyl)sulfonyl)piperazin-2-yl)methanol], the IC50 is 1100 nM in assay [2] and 190 nM in assay [1]. The figures for the “increase of circulating Tryptophan compared to vehicle-treated controls” value on TDO2 (30 mg/kg oral gavage), at TDO2 (60 mg/kg oral gavage) and at TDO2 (100 mg/kg oral gavage) were 67%, 81% and 74%, respectively.

For `O=C1CCN(S(=O)(=O)c2ccc(-c3c[nH]c4cc(F)ccc34)cc2)CCN1` [Example 90, 1-((4-(6-fluoro-1H-indol-3-yl)phenyl)sulfonyl)-1,4-diazepan-5-one], the IC50 in assay [2] amounted to 2000 nM; in assay [1] it was 130 nM.

For `C[C@@H](O)CNS(=O)(=O)c1ccc(-c2c[nH]c3cc(F)ccc23)cc1` [Example 93, (−)-(R)-4-(6-fluoro-1H-indol-3-yl)-N-(2-hydroxypropyl)-benzenesulfonamide], the IC50 came out at 550 nM in assay [2] and 200 nM in assay [1].

In the case of `C[C@H](O)CNS(=O)(=O)c1ccc(-c2c[nH]c3cc(F)ccc23)cc1` [Example 94, (+)-(S)-4-(6-fluoro-1H-indol-3-yl)-N-(2-hydroxypropyl)-benzenesulfonamide], the IC50 was 840 nM in assay [2] and 300 nM in assay [1].

Take `NC(=O)[C@H]1C[C@@H](NS(=O)(=O)c2ccc(-c3c[nH]c4cc(F)ccc34)cc2)C1` [Example 95, (cis)-3-(4-(6-fluoro-1H-indol-3-yl)phenylsulfon-amido)cyclobutanecarboxamide]: the figures for the IC50 in assay [2] and in assay [1] were 1300 nM and 140 nM, respectively.

In the case of `C[C@H](CO)NS(=O)(=O)c1ccc(-c2c[nH]c3cc(F)ccc23)cc1` [Example 96, 4-(6-fluoro-1H-indol-3-yl)-N-[(2R)-1-hydroxypropan-2-yl]benzenesulfonamide], the IC50 in assay [2] worked out at 1000 nM; in assay [1], 160 nM.

In the case of `NC(=O)[C@H]1C[C@H](NS(=O)(=O)c2ccc(-c3c[nH]c4cc(F)ccc34)cc2)C1` [Example 97, (Trans)-3-(4-(6-fluoro-1H-indol-3-yl)phenyl-sulfonamido)cyclobutanecarboxamide], the IC50 in assay [2] turned out to be 820 nM; in assay [1], 100 nM.

Turning to `CN(CCS(N)(=O)=O)S(=O)(=O)c1ccc(-c2c[nH]c3cc(F)ccc23)cc1` [Example 98, 4-(6-fluoro-1H-indol-3-yl)-N-methyl-N-(2-sulfamoylethyl)benzenesulfonamide], the IC50 in assay [2] is 910 nM; in assay [1] it was 250 nM.

As for `O=S(=O)(NCCn1cncn1)c1ccc(-c2c[nH]c3cc(F)ccc23)cc1` [Example 99, 4-(6-fluoro-1H-indol-3-yl)-N-[2-(1H-1,2,4-triazol-1-yl)-ethyl]benzenesulfonamide], the IC50 in assay [2] worked out at 1100 nM; in assay [1] it was 300 nM.

As for `O=S(=O)(c1ccc(-c2c[nH]c3cc(F)ccc23)cc1)N1CCC(O)(c2cncnc2)C1` (stereo not drawn) [Example 120, 1-((4-(6-fluoro-1H-indol-3-yl)phenyl)sulfonyl)-3-(pyrimidin-5-yl)pyrrolidin-3-ol], the IC50 in assay [2] and in assay [1] was 120 nM in each case.
